Data published in ChEMBL document CHEMBL2163300, “Mitogen-activated protein kinase-activated protein kinase 2 (MAPKAP-K2) as an antiinflammatory target: discovery and in vivo activity of selective pyrazolo[1,5-a]pyrimidine inhibitors using a focused library and structure-based optimization approach” (J Med Chem, 2012).
In brackets after ≈: the same amount, converted by molar mass.

Assays:
[1] = molecular target: Glycogen synthase kinase-3 beta (Homo sapiens, UniProt P49841); assay: Inhibition of GSK3beta
[2] = molecular target: Tyrosine-protein kinase Lck (Homo sapiens, UniProt P06239); assay: Inhibition of LCK
[3] = molecular target: Cyclin-dependent kinase 2 (Homo sapiens, UniProt P24941)
Description: Inhibition of CDK2 after 60 mins using [33P]-gamma-ATP by liquid scintillation counter

[4] = molecular target: T1, Mitogen-activated protein kinase 14 (Homo sapiens, UniProt Q16539); assay: Inhibition of P38alpha
[5] = molecular target: MAP kinase-activated protein kinase 5 (Homo sapiens, UniProt Q8IW41); assay: Inhibition of PRAK
[6] = Apparent permeability across apical to basolateral side in human Caco2 cells; assay type: ADME, cell-based; conditions: Caco-2
[7] = Intrinsic clearance in human liver microsomes; assay type: ADME, Microsome; conditions: read-out: CLH
[8] = Intrinsic clearance in mouse liver microsomes; assay type: ADME, Microsome; conditions: read-out: CLH
[9] = molecular target: T2, MAP kinase-activated protein kinase 2 (Homo sapiens, UniProt P49137); assay: Inhibition of MAPKAP-K2 using KKLNRTLSVA as substrate and [33P]-gamma-ATP after 30 mins by liquid scintillation counter
[10] = molecular target: Mitogen-activated protein kinase 9 (Homo sapiens, UniProt P45984); assay: Inhibition of JNK2
[11] = Solubility of the compound at pH 7.4; assay type: physicochemical; conditions: buffer
[12] = molecular target: T2, MAP kinase-activated protein kinase 2; assay: Competitive inhibition of MAPKAP-K2 using KKLNRTLSVA as substrate and [33P]-gamma-ATP by Lineweaver-Burke plot analysis
[13] = molecular target: T3, Rho-associated protein kinase 2 (Homo sapiens, UniProt O75116); assay: Inhibition of ROK2
Target sequence in this assay (O75116 whole entry): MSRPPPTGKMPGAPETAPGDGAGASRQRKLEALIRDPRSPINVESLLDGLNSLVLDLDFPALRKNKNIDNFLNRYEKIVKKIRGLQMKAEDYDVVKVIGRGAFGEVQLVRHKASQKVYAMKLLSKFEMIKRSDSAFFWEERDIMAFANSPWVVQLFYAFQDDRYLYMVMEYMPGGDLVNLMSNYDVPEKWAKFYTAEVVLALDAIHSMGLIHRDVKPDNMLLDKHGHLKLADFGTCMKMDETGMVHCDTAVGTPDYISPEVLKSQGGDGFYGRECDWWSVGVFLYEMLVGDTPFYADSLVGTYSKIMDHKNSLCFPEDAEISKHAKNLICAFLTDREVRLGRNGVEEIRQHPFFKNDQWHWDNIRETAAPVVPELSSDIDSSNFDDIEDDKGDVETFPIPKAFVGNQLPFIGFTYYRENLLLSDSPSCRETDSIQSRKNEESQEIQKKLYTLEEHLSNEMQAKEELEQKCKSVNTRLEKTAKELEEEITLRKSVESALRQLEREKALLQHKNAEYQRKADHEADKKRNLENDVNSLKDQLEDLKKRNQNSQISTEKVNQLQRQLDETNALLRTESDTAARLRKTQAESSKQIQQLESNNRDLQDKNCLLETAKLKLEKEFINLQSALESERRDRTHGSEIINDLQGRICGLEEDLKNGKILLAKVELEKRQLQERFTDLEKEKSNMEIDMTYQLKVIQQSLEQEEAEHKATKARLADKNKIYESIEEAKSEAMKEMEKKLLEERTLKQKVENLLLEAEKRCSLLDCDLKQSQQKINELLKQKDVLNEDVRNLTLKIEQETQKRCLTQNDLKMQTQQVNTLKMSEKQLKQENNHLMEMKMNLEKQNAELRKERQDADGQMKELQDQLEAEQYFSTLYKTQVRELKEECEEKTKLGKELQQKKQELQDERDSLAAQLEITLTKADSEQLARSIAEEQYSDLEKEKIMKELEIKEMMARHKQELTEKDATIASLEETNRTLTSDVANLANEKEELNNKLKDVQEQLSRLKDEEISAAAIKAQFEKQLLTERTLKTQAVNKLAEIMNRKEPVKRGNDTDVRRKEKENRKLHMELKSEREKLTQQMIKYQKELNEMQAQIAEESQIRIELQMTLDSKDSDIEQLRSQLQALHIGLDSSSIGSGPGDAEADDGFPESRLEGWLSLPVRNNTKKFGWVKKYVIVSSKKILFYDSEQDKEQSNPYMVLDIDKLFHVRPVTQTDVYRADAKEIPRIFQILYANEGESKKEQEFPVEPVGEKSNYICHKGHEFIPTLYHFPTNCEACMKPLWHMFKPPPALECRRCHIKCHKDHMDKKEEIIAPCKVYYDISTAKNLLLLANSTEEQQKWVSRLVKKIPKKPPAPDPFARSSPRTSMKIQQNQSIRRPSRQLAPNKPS

[14] = Inhibition of PHK
Serum [15] = assay: Drug uptake in po dosed C57BL/6 mouse serum; assay type: ADME, organism-based; conditions: in vivo
[16] = molecular target: MAP kinase-activated protein kinase 2 (Mus musculus, UniProt P49138); assay: Inhibition of MAPKAP-K2 in mouse whole blood assessed as inhibition of LPS-induced TNFalpha production by ELISA
Rattus norvegicus [17] = organism: Rattus norvegicus; assay: Inhibition of rat AMPK at 10 uM
[18] = molecular target: Cyclin-dependent kinase 1/cyclin B1 (Homo sapiens) (UniProt P06493+P14635); assay: Inhibition of human Cdk1/cyclin B at 10 uM; assay type: protein-complex assay
[19] = molecular target: Tyrosine-protein kinase Fes/Fps (Homo sapiens) (UniProt P07332); conditions: 10 uM
Description: Inhibition of human FES at 10 uM

[20] = molecular target: Mitogen-activated protein kinase 8 (Homo sapiens) (UniProt P45983); assay: Inhibition of human JNK1alpha1 at 10 uM
Homo sapiens = organism: Homo sapiens; assay: Inhibition of human PKA at 10 uM
[21] = AUC (0 to 24 hrs) in mouse at 1 mg/kg, po; assay type: ADME, organism-based; design: time < 24 hr, dose 1 mg/kg, route oral; conditions: plasma
[22] = molecular target: MAP kinase-activated protein kinase 5 (Homo sapiens) (UniProt Q8IW41); assay: Inhibition of human PRAK at 10 uM
[23] = molecular target: Tyrosine-protein kinase Yes (Homo sapiens) (UniProt P07947); conditions: 10 uM
Description: Inhibition of human YES at 10 uM

[24] = molecular target: T1, Mitogen-activated protein kinase 14; assay: Inhibition of human p38alpha at 10 uM
[25] = molecular target: RAC-alpha serine/threonine-protein kinase (Homo sapiens) (UniProt P31749); assay: Inhibition of human PKBalpha at 10 uM
Mus musculus [26] = assay: Antiinflammatory activity in po dosed C57BL/6 mouse assessed as decrease in LPS-induced serum TNFalpha level administered 30 mins prior to LPS challenge measured 60 mins post LPS challenge by ELISA; assay type: functional, organism-based
[27] = molecular target: Serine/threonine-protein kinase Chk1 (Homo sapiens) (UniProt O14757); assay: Inhibition of human CHK1 at 10 uM
[28] = molecular target: Dual specificity mitogen-activated protein kinase kinase 6 (Homo sapiens) (UniProt P52564); assay: Inhibition of human MKK6 at 10 uM
[29] = molecular target: Protein kinase C gamma type (Homo sapiens) (UniProt P05129); assay: Inhibition of human PKCgamma at 10 uM
[30] = molecular target: Receptor-type tyrosine-protein kinase FLT3 (Homo sapiens) (UniProt P36888); conditions: 10 uM
Description: Inhibition of human FLT3 at 10 uM

Serum [31] = assay: Drug level in C57BL/6 mouse serum at 30 mg/kg, po; assay type: ADME, organism-based; design: dose 30 mg/kg, route oral; conditions: in vivo, read-out: Drug uptake
Serum [32] = assay: Drug level in C57BL/6 mouse serum at 100 mg/kg, po; assay type: ADME, organism-based; design: dose 100 mg/kg, route oral; conditions: in vivo, read-out: Drug uptake
THP-1 = assay: Cytotoxicity against human THP1 cells assessed as cell viability by MTS assay; assay type: cell-based
[33] = molecular target: Ribosomal protein S6 kinase alpha-3 (Homo sapiens) (UniProt P51812); assay: Inhibition of human RSK2 at 10 uM
[34] = molecular target: Mitogen-activated protein kinase 13 (Homo sapiens) (UniProt O15264); assay: Inhibition of human p38delta at 10 uM
[35] = molecular target: Dual specificity mitogen-activated protein kinase kinase 1 (Homo sapiens) (UniProt Q02750); assay: Inhibition of human MEK1 at 10 uM
[36] = molecular target: Mitogen-activated protein kinase 1 (Homo sapiens) (UniProt P28482); assay: Inhibition of human ERK2 at 10 uM
[37] = molecular target: Dual specificity mitogen-activated protein kinase kinase 4 (Mus musculus) (UniProt P47809); assay: Inhibition of mouse MKK4 at 10 uM
[38] = molecular target: T3, Rho-associated protein kinase 2; assay: Inhibition of human ROCK2 at 10 uM
Target sequence in this assay (O75116 whole entry, looked up): as the sequence (O75116 whole entry) above

Serum [39] = assay: Drug level in C57BL/6 mouse serum at 10 mg/kg, po; assay type: ADME, organism-based; design: dose 10 mg/kg, route oral; conditions: in vivo, read-out: Drug uptake
[40] = molecular target: Inhibitor of nuclear factor kappa-B kinase subunit beta (Homo sapiens) (UniProt O14920); assay: Inhibition of human IKKbeta at 10 uM
[41] = Oral bioavailability in mouse at 1 mg/kg; assay type: ADME, organism-based; conditions: in vivo
[42] = molecular target: Dual specificity mitogen-activated protein kinase kinase 7 (Homo sapiens) (UniProt O14733); assay: Inhibition of human MKK7beta at 10 uM
[43] = molecular target: Protein kinase C alpha type (Homo sapiens) (UniProt P17252); assay: Inhibition of human PKCalpha at 10 uM
Mus musculus [44] = assay: Antiinflammatory activity in C57BL/6 mouse assessed as LPS-induced serum TNFalpha level at 100 mg/kg, po administered 30 mins prior to LPS challenge measured 60 mins post LPS challenge by ELISA relative to vehicle-treated control; assay type: functional
Rattus norvegicus [45] = organism: Rattus norvegicus; assay: Inhibition of rat CAMK2 at 10 uM
[46] = Total clearance in mouse at 1 mg/kg, iv; assay type: ADME, organism-based; design: dose 1 mg/kg, route intravenous; conditions: in vivo
[47] = molecular target: 3-phosphoinositide-dependent protein kinase 1 (Homo sapiens) (UniProt O15530); assay: Inhibition of human PDK1 at 10 uM
[48] = molecular target: Mitogen-activated protein kinase 12 (Homo sapiens) (UniProt P53778); assay: Inhibition of human p38gamma at 10 uM
[49] = Half life in mouse at 1 mg/kg, iv; assay type: ADME, organism-based; design: dose 1 mg/kg, route intravenous; conditions: in vivo
[50] = molecular target: Ribosomal protein S6 kinase beta-1 (Homo sapiens) (UniProt P23443); assay: Inhibition of human p70S6K at 10 uM
[51] = Plasma protein binding in mouse; assay type: ADME, cell-free; conditions: read-out: PPB (converted)
Serum [52] = assay: Drug level in C57BL/6 mouse serum at 60 mg/kg, po; assay type: ADME, organism-based; design: dose 60 mg/kg, route oral; conditions: in vivo, read-out: Drug uptake

T2 sequence (P49137 whole entry): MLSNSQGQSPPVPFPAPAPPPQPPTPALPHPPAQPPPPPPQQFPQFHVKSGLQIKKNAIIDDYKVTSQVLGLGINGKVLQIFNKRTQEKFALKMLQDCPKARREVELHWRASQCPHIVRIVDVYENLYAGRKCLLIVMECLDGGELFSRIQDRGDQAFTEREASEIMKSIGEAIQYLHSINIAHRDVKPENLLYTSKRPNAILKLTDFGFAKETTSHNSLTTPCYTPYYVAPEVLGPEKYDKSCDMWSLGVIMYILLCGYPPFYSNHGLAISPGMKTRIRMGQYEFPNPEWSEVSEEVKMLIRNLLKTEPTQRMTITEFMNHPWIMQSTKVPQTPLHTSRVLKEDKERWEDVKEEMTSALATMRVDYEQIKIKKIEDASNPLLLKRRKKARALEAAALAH
T1 sequence (Q16539 whole entry): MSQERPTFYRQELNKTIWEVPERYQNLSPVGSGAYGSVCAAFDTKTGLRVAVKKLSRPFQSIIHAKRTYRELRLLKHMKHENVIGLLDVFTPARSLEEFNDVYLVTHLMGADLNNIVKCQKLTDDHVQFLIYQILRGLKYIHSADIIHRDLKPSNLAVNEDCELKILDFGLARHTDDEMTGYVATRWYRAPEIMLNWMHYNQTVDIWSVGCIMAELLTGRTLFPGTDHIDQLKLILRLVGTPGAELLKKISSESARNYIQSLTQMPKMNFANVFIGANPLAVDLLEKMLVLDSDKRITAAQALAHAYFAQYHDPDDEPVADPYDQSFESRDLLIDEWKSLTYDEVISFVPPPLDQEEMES
Chain of Dual specificity mitogen-activated protein kinase kinase 4 (Mus musculus) (P47809 whole entry): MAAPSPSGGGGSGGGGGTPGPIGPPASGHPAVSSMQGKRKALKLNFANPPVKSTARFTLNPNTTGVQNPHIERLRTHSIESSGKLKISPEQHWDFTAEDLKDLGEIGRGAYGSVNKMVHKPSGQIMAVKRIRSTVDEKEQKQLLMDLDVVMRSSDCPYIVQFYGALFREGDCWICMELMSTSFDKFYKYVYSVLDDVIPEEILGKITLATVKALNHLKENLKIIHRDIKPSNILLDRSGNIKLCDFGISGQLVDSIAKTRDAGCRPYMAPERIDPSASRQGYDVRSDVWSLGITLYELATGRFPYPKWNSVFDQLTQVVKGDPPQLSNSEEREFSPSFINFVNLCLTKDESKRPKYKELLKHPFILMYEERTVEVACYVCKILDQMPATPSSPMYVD
Chain of Mitogen-activated protein kinase 8 (Homo sapiens) (P45983 whole entry): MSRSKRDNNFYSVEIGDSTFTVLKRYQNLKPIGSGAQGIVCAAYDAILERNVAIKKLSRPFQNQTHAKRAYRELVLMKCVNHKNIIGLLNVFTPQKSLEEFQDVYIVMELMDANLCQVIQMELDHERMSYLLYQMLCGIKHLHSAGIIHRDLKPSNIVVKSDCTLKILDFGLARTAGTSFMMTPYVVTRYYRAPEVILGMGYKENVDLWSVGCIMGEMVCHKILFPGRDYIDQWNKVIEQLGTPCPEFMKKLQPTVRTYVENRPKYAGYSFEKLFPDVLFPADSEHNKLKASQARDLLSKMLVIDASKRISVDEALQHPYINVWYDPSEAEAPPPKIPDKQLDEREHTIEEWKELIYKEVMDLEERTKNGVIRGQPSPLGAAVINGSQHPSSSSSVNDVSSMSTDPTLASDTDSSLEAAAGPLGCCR
Chain of Tyrosine-protein kinase Fes/Fps (Homo sapiens) (P07332 whole entry): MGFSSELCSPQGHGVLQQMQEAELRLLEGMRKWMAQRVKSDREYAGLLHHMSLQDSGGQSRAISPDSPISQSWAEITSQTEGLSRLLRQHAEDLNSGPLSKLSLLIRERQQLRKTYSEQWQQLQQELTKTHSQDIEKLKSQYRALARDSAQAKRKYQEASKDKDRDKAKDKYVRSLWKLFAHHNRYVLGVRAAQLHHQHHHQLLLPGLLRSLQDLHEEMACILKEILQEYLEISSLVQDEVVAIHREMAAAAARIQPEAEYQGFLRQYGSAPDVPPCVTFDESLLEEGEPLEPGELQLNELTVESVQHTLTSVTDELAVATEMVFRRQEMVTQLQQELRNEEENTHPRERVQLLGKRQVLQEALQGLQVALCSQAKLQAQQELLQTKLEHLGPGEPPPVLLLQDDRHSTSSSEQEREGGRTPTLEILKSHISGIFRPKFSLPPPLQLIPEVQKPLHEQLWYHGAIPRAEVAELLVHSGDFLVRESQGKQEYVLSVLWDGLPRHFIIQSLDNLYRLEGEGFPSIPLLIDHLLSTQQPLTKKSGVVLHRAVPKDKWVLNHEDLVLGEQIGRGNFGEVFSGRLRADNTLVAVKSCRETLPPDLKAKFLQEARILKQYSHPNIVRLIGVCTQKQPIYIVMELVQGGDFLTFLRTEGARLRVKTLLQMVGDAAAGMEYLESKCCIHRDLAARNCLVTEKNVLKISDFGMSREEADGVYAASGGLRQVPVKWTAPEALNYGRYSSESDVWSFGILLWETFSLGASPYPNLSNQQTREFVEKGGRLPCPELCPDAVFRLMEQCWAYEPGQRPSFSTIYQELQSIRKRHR
Chain of Dual specificity mitogen-activated protein kinase kinase 7 (Homo sapiens) (O14733 whole entry): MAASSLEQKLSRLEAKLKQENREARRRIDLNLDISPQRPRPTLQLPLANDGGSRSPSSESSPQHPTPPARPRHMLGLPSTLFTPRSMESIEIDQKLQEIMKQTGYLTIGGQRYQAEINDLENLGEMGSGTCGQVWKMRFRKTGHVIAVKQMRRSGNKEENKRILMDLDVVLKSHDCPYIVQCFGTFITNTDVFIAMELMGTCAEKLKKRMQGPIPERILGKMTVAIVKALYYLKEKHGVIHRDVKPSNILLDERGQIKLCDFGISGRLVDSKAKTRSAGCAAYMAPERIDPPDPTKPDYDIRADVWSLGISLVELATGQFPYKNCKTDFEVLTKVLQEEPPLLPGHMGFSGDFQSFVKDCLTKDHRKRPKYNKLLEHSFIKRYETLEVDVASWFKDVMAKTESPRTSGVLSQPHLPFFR
Chain of Dual specificity mitogen-activated protein kinase kinase 1 (Homo sapiens) (Q02750 whole entry): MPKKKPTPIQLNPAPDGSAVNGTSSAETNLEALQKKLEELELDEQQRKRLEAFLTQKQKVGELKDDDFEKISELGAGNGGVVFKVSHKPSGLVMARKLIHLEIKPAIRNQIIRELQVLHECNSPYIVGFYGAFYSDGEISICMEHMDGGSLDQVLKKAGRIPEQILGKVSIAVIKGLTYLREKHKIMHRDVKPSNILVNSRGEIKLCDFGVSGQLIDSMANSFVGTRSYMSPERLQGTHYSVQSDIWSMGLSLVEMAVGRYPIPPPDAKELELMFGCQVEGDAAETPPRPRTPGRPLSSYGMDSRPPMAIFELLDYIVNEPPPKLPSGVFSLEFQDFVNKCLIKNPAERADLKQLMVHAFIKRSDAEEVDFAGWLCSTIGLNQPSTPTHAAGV
Chain of Mitogen-activated protein kinase 1 (Homo sapiens) (P28482 whole entry): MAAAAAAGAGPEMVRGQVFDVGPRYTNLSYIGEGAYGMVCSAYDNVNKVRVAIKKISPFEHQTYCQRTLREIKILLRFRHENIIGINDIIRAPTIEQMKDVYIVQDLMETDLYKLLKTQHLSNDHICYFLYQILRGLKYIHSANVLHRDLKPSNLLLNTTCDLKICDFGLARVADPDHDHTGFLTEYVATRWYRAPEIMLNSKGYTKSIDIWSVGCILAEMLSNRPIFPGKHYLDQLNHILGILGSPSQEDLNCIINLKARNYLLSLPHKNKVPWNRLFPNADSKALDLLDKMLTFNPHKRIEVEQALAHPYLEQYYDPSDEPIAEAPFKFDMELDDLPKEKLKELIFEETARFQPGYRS

## N[C@H]1CC[C@H](Nc2cc(Nc3ccc(F)c(Cl)c3)n3nccc3n2)CC1
[1]
  IC50: 23 µM
[2]
  IC50: 300 µM
[3]
  IC50: 0.055 µM
[4]
  IC50: > 100 µM
[5]
  IC50: 11 µM
[6]
  Papp A→B: 7.1 ×10⁻⁶ cm/s
[7]
  microsomal CLint: < 10 µL/min/mg
[8]
  microsomal CLint: 59 µL/min/mg
[9]
  IC50: 1.3 µM
[10]
  IC50: 25 µM
[11]
  solubility: 75 µg/mL (≈ 200 µM)
[12]
  Ki: 6 µM
[13]
  IC50: 14 µM
[14]
  IC50: 3 µM

## CCOc1ccc(Nc2c(C)c(N[C@H]3CCCNC3)nc3ccnn23)cc1
Serum [15]
  Drug uptake: Dose-dependent effect
[16]
  IC50: 5 µM
Rattus norvegicus [17]
  inhibition: 35%
[18]
  inhibition: 12%
[19]
  inhibition: > 75%
[20]
  inhibition: 0%
Homo sapiens
  inhibition: 0%
[21]
  AUC(0-t) at 24 h: 0.438 µM·h
[22]
  inhibition: 62%
[23]
  inhibition: > 75%
[24]
  inhibition: 4%
[25]
  inhibition: 3%
Mus musculus [26]
  Activity: Dose-dependent effect
[27]
  inhibition: 30%
[28]
  inhibition: 24%
[29]
  inhibition: -5%
[6]
  Papp A→B: 28.3 ×10⁻⁶ cm/s
[30]
  inhibition: > 75%
[7]
  microsomal CLint: < 10 µL/min/mg
Serum [31]
  concentration: 5 µM
Serum [32]
  concentration: 10 µM
THP-1
  IC50: 74 µM
[33]
  inhibition: 9%
[34]
  inhibition: 3%
[35]
  inhibition: 19%
[8]
  microsomal CLint: 11 µL/min/mg
[36]
  inhibition: 7%
[37]
  inhibition: 15%
[38]
  inhibition: 23%
Serum [39]
  concentration: 2 µM
[40]
  inhibition: 7%
[41]
  bioavailability: 66%
[42]
  inhibition: 26%
[43]
  inhibition: 5%
Mus musculus [44]
  Activity: 14%
[11]
  solubility: 70 µg/mL (≈ 191 µM)
Rattus norvegicus [45]
  inhibition: 41%
[46]
  clearance: 68.3 mL/min/kg
[47]
  inhibition: -9%
[48]
  inhibition: -2%
[49]
  half-life: 2.2 h
[50]
  inhibition: -1%
[51]
  fraction unbound: 0.114
Serum [52]
  concentration: 8 µM
